# Data reported in the supplement of paper PMC10307832.
# Tests used:
# Assay in all cases: relative viability (nuclei count vs DMSO), 5 days (fraction); higher = more cells survive
# NCI-H1651 = test system: NCI-H1651
# In short: (§1)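 Relative viability is defined as nuclei in treated wells over nuclei in vehicle wells. Duplicate plates were run and medians reported. Lung cancer cell lines in 1536-well plates were dosed by pin tool one day after seeding, with one drug or with a fixed anchor-drug dose plus five library-drug doses (not always all listed) in √10 steps, and nuclei were counted after 5 days.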
# NCI-H1355 = test system: NCI-H1355
# In short: as §1
# ABC-1 = test system: ABC-1
# In short: as §1
# HCC-44 = test system: HCC-44
# In short: as §1
# NCI-H1915 = test system: NCI-H1915
# In short: as §1
# NCI-H2085 = test system: NCI-H2085
# In short: as §1
# PC-14 = test system: PC-14
# In short: as §1
# NCI-H650 = test system: NCI-H650
# In short: as §1
# EPLC-272H = test system: EPLC-272H
# In short: as §1
# LC-2-ad = test system: LC-2-ad
# In short: as §1
# HARA = test system: HARA
# In short: as §1
# NCI-H838 = test system: NCI-H838
# In short: as §1
# NCI-H2126 = test system: NCI-H2126
# In short: as §1
# HCC-15 = test system: HCC-15
# In short: as §1
# NCI-H2347 = test system: NCI-H2347
# In short: as §1
# NCI-H1993 = test system: NCI-H1993
# In short: as §1
# LU99A = test system: LU99A
# In short: as §1
# HOP-62 = test system: HOP-62
# In short: as §1
smiles,measurement,setting,value
CC(=O)O[C@@]12CO[C@@H]1C[C@H](O)[C@@]1(C)C(=O)[C@H](O)C3=C(C)[C@@H](OC(=O)[C@H](O)[C@@H](NC(=O)OC(C)(C)C)c4ccccc4)C[C@@](O)([C@@H](OC(=O)c4ccccc4)[C@H]21)C3(C)C [Docetaxel] + NC(=O)Nc1cc(-c2cccc(F)c2)sc1C(=O)N[C@H]1CCCNC1 [AZD7762] (partner 0.2 µM),relative viability,NCI-H1651; first compound 0.0002 µM,0.345
same,relative viability,NCI-H1651; first compound 0.000632 µM,0.507
same,relative viability,NCI-H1651; first compound 0.002 µM,0.394
same,relative viability,NCI-H1651; first compound 0.006325 µM,0.13
same,relative viability,NCI-H1355; first compound 0.0002 µM,0.698
same,relative viability,NCI-H1355; first compound 0.000632 µM,0.758
same,relative viability,NCI-H1355; first compound 0.002 µM,0.411
same,relative viability,NCI-H1355; first compound 0.02 µM,0.191
same,relative viability,ABC-1; first compound 0.0002 µM,0.826
same,relative viability,ABC-1; first compound 0.000632 µM,0.795
same,relative viability,ABC-1; first compound 0.002 µM,0.619
same,relative viability,ABC-1; first compound 0.006325 µM,0.297
same,relative viability,ABC-1; first compound 0.02 µM,0.222
same,relative viability,HCC-44; first compound 0.0002 µM,1.06
same,relative viability,HCC-44; first compound 0.000632 µM,1.07
same,relative viability,HCC-44; first compound 0.002 µM,1.07
same,relative viability,HCC-44; first compound 0.006325 µM,0.525
same,relative viability,HCC-44; first compound 0.02 µM,0.497
same,relative viability,NCI-H1915; first compound 0.0002 µM,0.638
same,relative viability,NCI-H1915; first compound 0.000632 µM,0.703
same,relative viability,NCI-H1915; first compound 0.002 µM,0.527
same,relative viability,NCI-H1915; first compound 0.006325 µM,0.182
same,relative viability,NCI-H1915; first compound 0.02 µM,0.107
same,relative viability,NCI-H2085; first compound 0.0002 µM,0.963
same,relative viability,NCI-H2085; first compound 0.000632 µM,0.954
same,relative viability,NCI-H2085; first compound 0.002 µM,0.849
same,relative viability,NCI-H2085; first compound 0.006325 µM,0.338
same,relative viability,NCI-H2085; first compound 0.02 µM,0.309
same,relative viability,PC-14; first compound 0.0002 µM,0.322
same,relative viability,PC-14; first compound 0.000632 µM,0.337
same,relative viability,PC-14; first compound 0.002 µM,0.132
same,relative viability,PC-14; first compound 0.006325 µM,0.0705
same,relative viability,PC-14; first compound 0.02 µM,0.0363
same,relative viability,NCI-H650; first compound 0.0002 µM,0.946
same,relative viability,NCI-H650; first compound 0.000632 µM,0.485
same,relative viability,NCI-H650; first compound 0.002 µM,0.363
same,relative viability,NCI-H650; first compound 0.006325 µM,0.28
same,relative viability,NCI-H650; first compound 0.02 µM,0.239
same,relative viability,EPLC-272H; first compound 0.000632 µM,0.191
same,relative viability,EPLC-272H; first compound 0.002 µM,0.0912
same,relative viability,EPLC-272H; first compound 0.006325 µM,0.149
same,relative viability,EPLC-272H; first compound 0.02 µM,0.0556
same,relative viability,LC-2-ad; first compound 0.0002 µM,0.8
same,relative viability,LC-2-ad; first compound 0.000632 µM,0.353
same,relative viability,LC-2-ad; first compound 0.002 µM,0.224
same,relative viability,LC-2-ad; first compound 0.006325 µM,0.274
same,relative viability,LC-2-ad; first compound 0.02 µM,0.178
same,relative viability,HARA; first compound 0.0002 µM,0.273
same,relative viability,HARA; first compound 0.000632 µM,0.201
same,relative viability,HARA; first compound 0.002 µM,0.105
same,relative viability,HARA; first compound 0.006325 µM,0.193
same,relative viability,HARA; first compound 0.02 µM,0.076
same,relative viability,NCI-H838; first compound 0.0002 µM,0.955
same,relative viability,NCI-H838; first compound 0.000632 µM,0.915
same,relative viability,NCI-H838; first compound 0.002 µM,0.639
same,relative viability,NCI-H838; first compound 0.006325 µM,0.606
same,relative viability,NCI-H838; first compound 0.02 µM,0.574
same,relative viability,NCI-H2126; first compound 0.0002 µM,1.07
same,relative viability,NCI-H2126; first compound 0.000632 µM,1
same,relative viability,NCI-H2126; first compound 0.002 µM,0.571
same,relative viability,NCI-H2126; first compound 0.006325 µM,0.395
same,relative viability,HCC-15; first compound 0.0002 µM,1.18
same,relative viability,HCC-15; first compound 0.000632 µM,1.02
same,relative viability,HCC-15; first compound 0.002 µM,0.433
same,relative viability,HCC-15; first compound 0.006325 µM,0.289
same,relative viability,HCC-15; first compound 0.02 µM,0.256
same,relative viability,NCI-H2347; first compound 0.0002 µM,0.697
same,relative viability,NCI-H2347; first compound 0.000632 µM,0.583
same,relative viability,NCI-H2347; first compound 0.002 µM,0.434
same,relative viability,NCI-H2347; first compound 0.006325 µM,0.395
same,relative viability,NCI-H2347; first compound 0.02 µM,0.268
same,relative viability,NCI-H1993; first compound 0.0002 µM,0.873
same,relative viability,NCI-H1993; first compound 0.000632 µM,0.739
same,relative viability,NCI-H1993; first compound 0.002 µM,0.603
same,relative viability,NCI-H1993; first compound 0.006325 µM,0.477
same,relative viability,NCI-H1993; first compound 0.02 µM,0.303
same,relative viability,LU99A; first compound 0.0002 µM,0.328
same,relative viability,LU99A; first compound 0.000632 µM,0.253
same,relative viability,LU99A; first compound 0.002 µM,0.194
same,relative viability,LU99A; first compound 0.006325 µM,0.228
same,relative viability,LU99A; first compound 0.02 µM,0.104
same,relative viability,HOP-62; first compound 0.0002 µM,0.6
same,relative viability,HOP-62; first compound 0.000632 µM,0.395
same,relative viability,HOP-62; first compound 0.02 µM,0.0943
Cc1sc2c(c1C)C(c1ccc(Cl)cc1)=N[C@@H](CC(=O)OC(C)(C)C)c1nnc(C)n1-2 [JQ1] + NC(=O)Nc1cc(-c2cccc(F)c2)sc1C(=O)N[C@H]1CCCNC1 [AZD7762] (partner 0.2 µM),relative viability,NCI-H1651; first compound 0.04 µM,0.538
same,relative viability,NCI-H1651; first compound 0.1265 µM,0.45
same,relative viability,NCI-H1651; first compound 0.4 µM,0.427
same,relative viability,NCI-H1651; first compound 1.265 µM,0.421
same,relative viability,NCI-H1651; first compound 4 µM,0.419
same,relative viability,NCI-H1355; first compound 0.04 µM,0.747
same,relative viability,NCI-H1355; first compound 0.1265 µM,0.769
same,relative viability,NCI-H1355; first compound 0.4 µM,0.705
same,relative viability,NCI-H1355; first compound 1.265 µM,0.554
same,relative viability,NCI-H1355; first compound 4 µM,0.406
same,relative viability,ABC-1; first compound 0.04 µM,0.854
same,relative viability,ABC-1; first compound 0.1265 µM,0.803
same,relative viability,ABC-1; first compound 0.4 µM,0.95
same,relative viability,ABC-1; first compound 1.265 µM,0.596
same,relative viability,ABC-1; first compound 4 µM,0.529
same,relative viability,HCC-44; first compound 0.04 µM,0.987
same,relative viability,HCC-44; first compound 0.1265 µM,1.14
same,relative viability,HCC-44; first compound 0.4 µM,1.06
same,relative viability,HCC-44; first compound 1.265 µM,1.09
same,relative viability,HCC-44; first compound 4 µM,0.76
same,relative viability,NCI-H1915; first compound 0.04 µM,0.729
same,relative viability,NCI-H1915; first compound 0.4 µM,0.653
same,relative viability,NCI-H1915; first compound 1.265 µM,0.437
same,relative viability,NCI-H1915; first compound 4 µM,0.241
same,relative viability,NCI-H2085; first compound 0.04 µM,0.935
same,relative viability,NCI-H2085; first compound 0.1265 µM,0.822
same,relative viability,NCI-H2085; first compound 0.4 µM,1.06
same,relative viability,NCI-H2085; first compound 1.265 µM,0.446
same,relative viability,NCI-H2085; first compound 4 µM,0.318
same,relative viability,PC-14; first compound 0.04 µM,0.267
same,relative viability,PC-14; first compound 0.1265 µM,0.259
same,relative viability,PC-14; first compound 0.4 µM,0.207
same,relative viability,PC-14; first compound 1.265 µM,0.125
same,relative viability,PC-14; first compound 4 µM,0.0805
same,relative viability,NCI-H650; first compound 0.04 µM,0.935
same,relative viability,NCI-H650; first compound 0.1265 µM,0.591
same,relative viability,NCI-H650; first compound 0.4 µM,1
same,relative viability,NCI-H650; first compound 1.265 µM,0.565
same,relative viability,NCI-H650; first compound 4 µM,0.302
same,relative viability,EPLC-272H; first compound 0.04 µM,0.244
same,relative viability,EPLC-272H; first compound 0.1265 µM,0.122
same,relative viability,EPLC-272H; first compound 0.4 µM,0.355
same,relative viability,EPLC-272H; first compound 1.265 µM,0.246
same,relative viability,EPLC-272H; first compound 4 µM,0.214
same,relative viability,LC-2-ad; first compound 0.04 µM,0.793
same,relative viability,LC-2-ad; first compound 0.1265 µM,0.42
same,relative viability,LC-2-ad; first compound 0.4 µM,0.374
same,relative viability,LC-2-ad; first compound 1.265 µM,0.249
same,relative viability,LC-2-ad; first compound 4 µM,0.204
same,relative viability,HARA; first compound 0.04 µM,0.303
same,relative viability,HARA; first compound 0.1265 µM,0.431
same,relative viability,HARA; first compound 0.4 µM,0.236
same,relative viability,HARA; first compound 1.265 µM,0.155
same,relative viability,HARA; first compound 4 µM,0.242
same,relative viability,NCI-H838; first compound 0.04 µM,0.907
same,relative viability,NCI-H838; first compound 0.1265 µM,0.782
same,relative viability,NCI-H838; first compound 0.4 µM,0.817
same,relative viability,NCI-H838; first compound 1.265 µM,0.805
same,relative viability,NCI-H838; first compound 4 µM,0.628
same,relative viability,NCI-H2126; first compound 0.04 µM,1.08
same,relative viability,NCI-H2126; first compound 0.1265 µM,1.01
same,relative viability,NCI-H2126; first compound 0.4 µM,1.04
same,relative viability,NCI-H2126; first compound 1.265 µM,0.956
same,relative viability,NCI-H2126; first compound 4 µM,0.838
same,relative viability,HCC-15; first compound 0.04 µM,1.32
same,relative viability,HCC-15; first compound 0.1265 µM,0.924
same,relative viability,HCC-15; first compound 0.4 µM,0.978
same,relative viability,HCC-15; first compound 1.265 µM,0.512
same,relative viability,HCC-15; first compound 4 µM,0.742
same,relative viability,NCI-H2347; first compound 0.04 µM,0.811
same,relative viability,NCI-H2347; first compound 0.1265 µM,0.917
same,relative viability,NCI-H2347; first compound 0.4 µM,0.724
same,relative viability,NCI-H2347; first compound 1.265 µM,0.445
same,relative viability,NCI-H2347; first compound 4 µM,0.357
same,relative viability,NCI-H1993; first compound 0.04 µM,0.849
same,relative viability,NCI-H1993; first compound 0.1265 µM,0.779
same,relative viability,NCI-H1993; first compound 0.4 µM,0.796
same,relative viability,NCI-H1993; first compound 1.265 µM,0.53
same,relative viability,NCI-H1993; first compound 4 µM,0.488
same,relative viability,LU99A; first compound 0.04 µM,0.443
same,relative viability,LU99A; first compound 0.4 µM,0.271
same,relative viability,LU99A; first compound 1.265 µM,0.165
same,relative viability,LU99A; first compound 4 µM,0.172
same,relative viability,HOP-62; first compound 0.04 µM,0.535
same,relative viability,HOP-62; first compound 0.1265 µM,0.608
same,relative viability,HOP-62; first compound 0.4 µM,0.37
same,relative viability,HOP-62; first compound 1.265 µM,0.103
same,relative viability,HOP-62; first compound 4 µM,0.107
